Values belong to the compound of their own block, whether it stands above or below them.
Assays:
MCF7 = test: Antiproliferative activity against human MCF7 cells assessed as reduction in cell viability after 72 hrs by sulforhodamine B assay; type: functional, cell-based; conditions: MCF7, 72 h
PC-3 = test: Antiproliferative activity against human PC3 cells assessed as reduction in cell viability by MTT assay; type: functional, cell-based
LNCaP = test: Inhibition of steroid 5-alpha-reductase in human LNCAP cells assessed as reduction in 5- dihydrotestosterone formation at 100 uM incubated for 60 mins by LC-MS analysis relative to control; type: cell-based
HeLa = test: Antiproliferative activity against human HeLa cells assessed as reduction in cell viability after 72 hrs by sulforhodamine B assay; type: functional, cell-based
[1] = Inhibition of steroid 5-alpha-reductase in human LNCAP cells assessed as reduction in 5- dihydrotestosterone formation incubated for 60 mins by LC-MS analysis; type: cell-based; conditions: 1 h

SMILES: COC(=O)c1cc(C[C@H]2C(C)=CC[C@H]3C(C)(C)CCC[C@]23C)c(O)c(O)c1O
- IC50 (MCF7): > 10 µM
- IC50 (PC-3): > 10 µM
- inhibition (LNCaP): < 50%
- IC50 (HeLa): > 10 µM

SMILES: COC1=CC(=O)C2=C(C[C@H]3[C@]4(C)CCCC(C)(C)[C@H]4CC[C@@]3(C)O2)C1=O
- IC50 (MCF7): > 10 µM
- IC50 (PC-3): > 10 µM
- IC50 [1]: 0.73 µM
- IC50 (HeLa): > 10 µM

SMILES: COC(=O)c1cc(O)c(O)c(C[C@H]2C(C)=CC[C@H]3C(C)(C)CCC[C@]23C)c1
- IC50 (MCF7): > 10 µM
- IC50 (PC-3): > 10 µM
- inhibition (LNCaP): < 50%
- IC50 (HeLa): > 10 µM

SMILES: C=C1CCC[C@H]2[C@](C)(CC3=C(O)C(=O)C=C(OC)C3=O)[C@@H](C)CC[C@@]12C
- IC50 (MCF7): > 10 µM
- IC50 (PC-3): > 10 µM
- inhibition (LNCaP): < 50%
- IC50 (HeLa): > 10 µM

SMILES: C=C1CCC[C@H]2[C@](C)(CC3=C(O)C(=O)C=C(OC)C3=O)[C@@H](C)CC[C@]12C [ILIMAQUINONE]
- IC50 (MCF7): > 10 µM
- IC50 (PC-3): > 10 µM
- inhibition (LNCaP): < 50%
- IC50 (HeLa): > 10 µM

Now from value to compound, other results behind:

- IC50 (MCF7): > 10 µM
- IC50 (PC-3): > 10 µM
- IC50 (HeLa): > 10 µM
SMILES: C=C1CCC[C@H]2[C@](C)(CC3=C(O)C(=O)C(CCCCC(C)=O)=C(OC)C3=O)[C@@H](C)CC[C@]12C
- inhibition (LNCaP): < 50%

- IC50 [1]: 0.76 µM
SMILES: CC(C)(C)NC(=O)[C@H]1CC[C@H]2[C@@H]3CC[C@H]4NC(=O)C=C[C@]4(C)[C@H]3CC[C@]12C [FINASTERIDE]

- IC50 (MCF7): > 10 µM
- IC50 (PC-3): > 10 µM
- IC50 (HeLa): > 10 µM
SMILES: C=C1CCC[C@H]2[C@](C)(CC3=C(O)C(=O)C=C(NCCc4ccccc4)C3=O)[C@@H](C)CC[C@]12C
- inhibition (LNCaP): < 50%

- IC50 (MCF7): > 10 µM
- IC50 (PC-3): > 10 µM
- IC50 (HeLa): > 10 µM
SMILES: C=C1CCC[C@H]2[C@](C)(CC3=C(O)C(=O)C=C(NCC(C)C)C3=O)[C@@H](C)CC[C@]12C
- inhibition (LNCaP): < 50%

- IC50 (MCF7): > 10 µM
- IC50 (PC-3): > 10 µM
- IC50 (HeLa): > 10 µM
SMILES: COC1=CC(=O)C(O)=C(C/C=C(\C)CC/C=C(\C)CCC=C(C)C)C1=O
- inhibition (LNCaP): < 50%
